Measured values as given in publication PMC9652300, “Neolignans isolated from Saururus cernuus L. (Saururaceae) exhibit efficacy against Schistosoma mansoni” (Scientific Reports, 2022).
Where two headings read alike, the source gives them in different places.

Columns and labels:
S. mansoni adult worms [1] = details: cited from earlier work
[2] = Cytotoxicity MTT assay, HaCaT cells; format: cell-based, human; details: human, HaCaT cells (human epithelial cells); HaCaT cells, MTT, 72 h
Method: (§1) HaCaT (human epithelial cells) and Vero (monkey kidney cells) were obtained from the Banco de Células do Rio de Janeiro (BCRJ, RJ, Brazil) and the American Type Culture Collection (ATCC CCL-81; Manassas, VA, USA), respectively. Cells were cultured in DMEM medium supplemented with 10% heat-inactivated fetal bovine serum and antibiotics (100 U/mL penicillin and 100 μg/mL streptomycin) at 37 °C in a humidified atmosphere containing 5% CO2. They were maintained in 25 cm^2 culture flasks (Corning, Tewksbury, MA, USA) and harvested using 0.25% trypsin in 0.2 g/L EDTA solution.
(§2) The MTT assay was used to evaluate the cytotoxic activity as previously described[71],[72]. Briefly, cells were seeded (2 × 10^3/well in 96-well culture plates) and incubated with threo-austrobailignan-6 and verrucosin (started at 500 µM and followed a threefold dilution series) for 72 h at 37 °C and 5% CO2. MTT solution was added to each well and the absorbance was read on an Epoch Microplate Spectrophotometer (BioTek Instruments, Winooski, VT, USA) at 595 nm. The selectivity indices (SI) were calculated by dividing the 50% cytotoxic concentration (CC50) obtained on cells with 50% effective concentration (EC50) values determined on schistosomes.
(§3) Statistical analyses were performed using Graph Pad Prism software 8.0 (San Diego, CA, USA). Data are presented as the mean ± standard deviation (SD) of at least three independent experiments, EC50 and, CC50 values were calculated using sigmoid dose–response curves. For S. mansoni egg production, significant differences were determined by one-way analysis of variance (ANOVA) and applying Tukey's test for multiple comparisons with a level of significance set at P < 0.05.

[3] = test system: Vero (monkey kidney cells); assay: Cytotoxicity MTT assay, Vero cells; format: cell-based, African green monkey; details: CC50 Vero / EC50 S. mansoni
Method: as §1, §2, §3

[4] = Cytotoxicity MTT assay, Vero cells; format: cell-based, African green monkey; details: African green monkey, Vero cells (monkey kidney cells); Vero cells, MTT, 72 h
Method: as §1, §2, §3

S. mansoni adult worms [5] = assay: Antischistosomal assay: viability of ex vivo adult worm pairs; format: cell-based
Method: The life cycle of S. mansoni (BH strain) is maintained by routine passage through Biomphalaria glabrata snails and Swiss mice at Guarulhos University (UNG, Guarulhos, SP, Brazil). Rodents, three weeks-old, were purchased from Animais de Laboratório Criação e Comércio (Paulínea, SP, Brazil). Both mice and snails were kept under environmentally controlled conditions (25 °C; humidity of 50%), with free access to food and water. Cercariae of S. mansoni were obtained from infected intermediate host snails in our laboratories as described previously[63],[64].
(§4) The antischistosomal assay was performed as previously described[65],[66]. Briefly, S. mansoni adult parasites were obtained from infected mice at day 42 post-infection (parasite ex vivo). One adult male and one adult female worms (i.e. one worm pairs) were incubated in flat bottom 24-well plates (Corning, New York, NY, USA) in the presence of threo-austrobailignan-6 and verrucosin (started at 50 µM and followed a twofold dilution series) in RPMI 1640 culture medium supplemented with 5% inactivated fetal calf serum and containing antibiotics (100 U/mL penicillin and 100 μg/mL streptomycin). The control schistosomes were assayed in a culture medium and 0.5% DMSO (representing the highest concentration of solvent). Each concentration (50, 25, 12.5, 6.25, 3.12 µM) was tested in five replicates, and the experiments were repeated three times. Parasites were kept for 72 h (37 °C, 5% CO2), and their viability was monitored microscopically at 2, 24, 48, and 72 h using both a Motic AE2000 inverted microscope (Vancouver, Canada) and a Leica EZ4E stereomicroscope (Wetzlar, Germany). The death of adult schistosomes was defined as no movement observed for at least 1 to 2 min of examination, whereas parasites with any body movement were considered viable. The percentage of viable adult schistosomes was calculated considering worms exposed to compounds vs control worms. For assessment of the reproductive fitness of S. mansoni, the number of eggs was counted daily using an inverted microscope (Motic) as previously described.
as §3

S. mansoni infections = test system: S. mansoni infections; set-up: method as in PMID 25412105, PMID 28126024; details: systematic reviews and meta-analyses; cited from earlier work
[6] = test system: HaCaT (human epithelial cells); assay: Cytotoxicity MTT assay, HaCaT cells; format: cell-based; details: CC50 HaCaT / EC50 S. mansoni
Method: as §1, §2, §3

[7] = test system: S. mansoni adult worm pairs; assay: Egg production (reproductive fitness) of paired adult worms; format: cell-based, Schistosoma mansoni; details: for total number of eggs vs control worms / oviposition: within 72 h
Method: as §4, §3

[8] = Schistosoma mansoni, 72 h, adult worms, male and female, 72 h, read-out: EC50 (schistosomicidal activity)
[9] = Schistosoma mansoni, 72 h, ex vivo adult female worms, 72 h exposure, brackets = 95% confidence interval, read-out: S. mansoni EC50 Female
[10] = Schistosoma mansoni, 72 h, ex vivo adult male worms, 72 h exposure, brackets = 95% confidence interval, read-out: S. mansoni EC50 Male

2-oxopopulifolic acid methyl ester
in vitro effective concentration (S. mansoni adult worms [1]): 50 µM

C=CC(C)(O)CCC=C(C)CCC=C(C)C (mixture of isomers) [nerolidol]
in vitro effective concentration (S. mansoni adult worms [1]): 85 µM

CC1=CC(=O)CC2[C@]1(C)CC[C@@H](C)[C@]2(C)CCC(C)CC(=O)O (stereo partly drawn) [2-oxopopulifolic acid]
in vitro effective concentration (S. mansoni adult worms [1]): 50 µM

CC(C)CCCC(C)CCO (stereo not drawn) [3,7-dimethylloctanol]
in vitro effective concentration (S. mansoni adult worms [1]): 52 µM

O=C(C1CCCCC1)N1CC(=O)N2CCc3ccccc3C2C1 (stereo not drawn) [Praziquantel, praziquantel, reference compound]
CC50 at 72 h [2]: > 500 µM
Monkey cells SI (Selectivity Index) [3]: > 714
CC50 at 72 h [4]: > 500 µM
EC50 (S. mansoni adult worms [5]; [8]): < 0.93 µM
EC50 (S. mansoni adult worms [5]; [9]): 0.8 µM
EC50 (S. mansoni adult worms [5]; [10]): 0.7 µM
mortality of adult worm pairs (S. mansoni adult worms [5]; praziquantel at 2 µM, monitored up to 72 h): mortality of all worms immediately
cure rate (S. mansoni infections): approximately 75%

COc1cc(C[C@@H](C)[C@H](C)Cc2ccc3c(c2)OCO3)ccc1O [Threo-austrobailignan-6, threo-austrobailignan-6]
Human cells SI (Selectivity Index) [6]: > 17.8
CC50 at 72 h [2]: > 500 µM
Monkey cells SI (Selectivity Index) [3]: > 17.8
CC50 at 72 h [4]: > 500 µM
EC50 (S. mansoni adult worms [5]; [8]): < 30 µM
EC50 (S. mansoni adult worms [5]; [9]): 28.1 µM
EC50 (S. mansoni adult worms [5]; [10]): 22.9 µM
mortality at 25 µM (S. mansoni adult worms [5]; Schistosoma mansoni, 72 h, read-out: mortality of male worms): 100%
pairing of male and female parasites ([7]; 25 μM): remained coupled
total number of eggs vs control worms ([7]; 25 μM): significantly reduced
pairing of male and female parasites ([7]; 50 μM): separated
oviposition ([7]; 50 μM): complete lack of oviposition

COc1cc([C@H]2O[C@@H](c3ccc(O)c(OC)c3)[C@@H](C)[C@@H]2C)ccc1O [Verrucosin, verrucosin]
Human cells SI (Selectivity Index) [6]: > 26.8
CC50 at 72 h [2]: > 500 µM
Monkey cells SI (Selectivity Index) [3]: > 26.8
CC50 at 72 h [4]: > 500 µM
time to death of all female worms (S. mansoni adult worms [5]; 25 μM): ≤ 72 h
mortality at 25 µM (S. mansoni adult worms [5]; Schistosoma mansoni, 48 h, read-out: mortality of male parasites): 100%
EC50 (S. mansoni adult worms [5]; [9]): 18.7 µM
EC50 (S. mansoni adult worms [5]; [10]): 12.6 µM
EC50 (S. mansoni adult worms [5]; adult worms, male and female, 72 h, read-out: EC50 (schistosomicidal activity)): < 30 µM
oviposition ([7]; 12.5 μM, P < 0.01): significant reduction
pairing of male and female parasites ([7]; 25 μM): remained coupled
total number of eggs vs control worms ([7]; 25 μM): significantly reduced
pairing of male and female parasites ([7]; 50 μM): separated
oviposition ([7]; 50 μM): complete lack of oviposition

COc1cc(O)cc(O)c1C(=O)/C=C/c1ccccc1 [cardamonin]
in vitro effective concentration (S. mansoni adult worms [1]): 25 µM

Cc1ccc(C(C)C)cc1O [carvacrol]
in vitro effective concentration (S. mansoni adult worms [1]): 56.8 µM

CC(=O)Oc1cc(C(C)C)ccc1C [carvacryl acetate]
in vitro effective concentration (S. mansoni adult worms [1]): 42.16 µM

C=C1C(=O)O[C@@H]2/C=C(\CO)CC/C=C(\C)C[C@H](OC(=O)C(=C)[C@@H](O)CO)[C@@H]12 [cnicin]
in vitro effective concentration (S. mansoni adult worms [1]): 50 µM

C=C1C[C@@]23CC[C@H]4[C@@](C)(CCC[C@@]4(C)C(=O)O)[C@@H]2CC[C@@H]1C3 [ent-kaur-16-en-19-oic acid]
in vitro effective concentration (S. mansoni adult worms [1]): 26.1 µM

C/C=C/c1cc(OC)c2c(c1)[C@H](C)[C@@H](c1ccc(O)c(OC)c1)O2 [licarin A]
in vitro effective concentration (S. mansoni adult worms [1]): 30 µM

C=CC(C)(C)c1cc(/C=C/C(=O)c2ccc(O)cc2)c(OC)cc1O [licochalcone A]
in vitro effective concentration (S. mansoni adult worms [1]): 50 µM
